Data on three compounds can be found in US9702880B2, “Antisense RNA for treating cancer and inhibition of metastasis and vectors for antisense sequestration” (Istituto Superiore di Sanità, priority 2008, dated 2017).

Like-named read-outs stand apart in the source and are kept apart here.

In one data set the test system is LNCaP cells. The conditions noted are these: 10 ng/ml.
Another data set deals with cyclin D1 3′UTR. Put plainly: Luciferase reporter assay, pGL3-3′UTR cotransfected with miR oligos. Conditions: K562 cells, 25 pmol oligo, 48 hours post-transfection, vs scrambled oligos. The class given is cell-based, human. How it is done:
(§1) 3′UTR segments of Bcl-2, cyclin D1 and Wnt3a were amplified by PCR from normal human genomic DNA and subcloned into the 3′UTR of the firefly luciferase coding sequence into pGL3-Promoter (Promega), see Supplementary Methods. Then K562 (5×10^4 cells per well) were transfected using Lipofectamine 2000 (Invitrogen) following the manufacturer's instructions. The transfection mix included: (a) 0.8 μg of pGL3-3′UTR plasmid and 50 ng of the control vector pRL-TK (Promega); (b) 25 pmol of either non-targeting RNA control (scrambled) or miR-15a or miR-16 oligonucleotides (Ambion). Forty-eight hours post-transfection, firefly and renilla luciferase activities were measured using the Dual Luciferase Assay kit (Promega). Transfection efficiencies were normalized by calculating the ratio of firefly to renilla. For each construct the relative luciferase activities were calculated by dividing the values obtained in the transfection of miR-15a and miR-16 by those of miR scrambled. Each experiment was performed in duplicate and replicated five times.
(§2) The miR-15a/miR-16 target genes UTRs were cloned in the Xba I site of pGL3 promoter, immediately downstream from the stop codon of the luciferase coding sequence. For Bcl-2, a 3′UTR of 1329 bp fragment was amplified, corresponding to residues 2446-3774 of Genbank Acc No M14745. For cyclin D1 3′UTR, a 1036 bp fragment was amplified ([…] of No NM_053056). For Wnt3a 3′UTR, a 906 bp fragment was amplified (residues 2026-2932 of No NM_033131.2). For 3′UTR cyclin D1 and Wnt3a mutagenesis, a five nucleotide mutation was inserted in the “seed” sequences interacting with miR-15a and miR-16 (see FIGS. 13A-C). Modified and HPLC purified oligonucleotides (Invitrogen) were used for amplification and mutagenesis, performed with Pfu enzyme following the in vitro mutagenesis kit protocol (Invitrogen). Transfection efficiencies of luciferase assays were normalized by calculating the ratio firefly/renilla. For each construct the relative luciferase activities were obtained by dividing the values obtained in the transfection of miR-15a and miR-16 by those of the non targeting miR scrambled. Each experiment was performed in duplicate and replicated five times.
(§3) To validate our targets, we subcloned the 3′UTR of these genes at the 3′ of the cDNA encoding luciferase in an expression construct and performed cotransfection experiments with miR-15a/miR-16. We narrowed our analysis to 1 kb regions harbouring the putative miR-15a/miR-16 target sites. The Bcl-2 3′UTR was tested in parallel as positive control. Luciferase assay was performed by cotransfecting pGL3-3′UTR vectors along with synthetic miR-15a, miR-16 and a control miR with a scrambled sequence.
In general terms: In a reporter assay the amount or activity of a reporter protein is the signal.

Another data set concerns Wnt3a 3′UTR. The data set is described as above. The conditions noted are these: K562 cells, 25 pmol oligo, 48 hours post-transfection, vs scrambled oligos. It counts as cell-based, human. How it is done: as §1, §2, §3
The next data set deals with Pim-1 UTR. The data set is described as above. The conditions noted are these: K562 cells, 48 hours post-transfection, vs scrambled oligos. It counts as cell-based, human.
A further data set deals with Bcl-2 3′UTR. Put plainly: Luciferase reporter assay, pGL3-3′UTR cotransfected with miR oligos (positive control). The class given is cell-based, human. The conditions noted are these: K562 cells, 25 pmol oligo, 48 hours post-transfection, vs scrambled oligos. The procedure:
as §1
The miR-15a/miR-16 target genes UTRs were cloned in the Xba I site of pGL3 promoter, immediately downstream from the stop codon of the luciferase coding sequence. For Bcl-2, a 3′UTR of 1329 bp fragment was amplified, corresponding to residues 2446-3774 of Genbank Acc No M14745. […]

Description for LNCaP cells: FIG. 12A Evaluation of cell death and caspase activation in RWPE-1 cells infected with TW3′ or decoy15/16 vectors and treated with 10 ng/ml of docetaxel. Caspase activation was measured after 4 h of treatment. FIG. 12B Evaluation of cell death and caspase activation in LNCaP cells infected with TW or TWmiR-15a/miR-16 vectors and exposed to 10 ng/ml of docetaxel. FIG. 12C-D Evaluation of cell death and caspase activation in miR15a/miR-16 defective or non-defective (normal) primary tumor cells transduced as indicated and treated with 10 ng/ml docetaxel. FIG. 12C. Cell death was measured after 24 h exposure to docetaxel. FIG. 12D. Caspase activation in LNCaP and primary tumor cells was measured after 18 h of treatment. Data are mean±s.d. of at least three independent experiments for each group.
Cell death was evaluated by trypan blue staining, PI staining and flow cytometry analysis, Apo-percentage assay (Biocolor) and Cell Titer kit (Promega). Caspase activation was detected using APO-one Homogeneous Caspase3/7 Assay Kit (Promega).

As for `CC(=O)O[C@@]12CO[C@@H]1C[C@H](O)[C@@]1(C)C(=O)[C@H](O)C3=C(C)[C@@H](OC(=O)[C@H](O)[C@@H](NC(=O)OC(C)(C)C)c4ccccc4)C[C@@](O)([C@@H](OC(=O)c4ccccc4)[C@H]21)C3(C)C` [docetaxel], the “Cytotoxic activity of docetaxel” value with LNCaP cells (empty vector-transduced LNCaP cells) is given as “scarcely sensitive”; in the data set on LNCaP cells (miR-15a/miR-16 reconstituted LNCaP cells), “massively killed”.

As to “miR-15a: mature miR 15, SEQ ID NO 4, 5′-UAGCAGCACAUAAUGGUUUGUG-3′; synthetic oligonucleotide (Ambion) in reporter assays (listed as RNA, chemistry not given here; listed as Homo sapiens)”, the Luciferase reporter activity entry in the data set with cyclin D1 3′UTR is “consistent reduction in reporter activity”; in the data set with Wnt3a 3′UTR, “consistent reduction in reporter activity”; in the data set on Pim-1 UTR, “non-targeted region”; in the data set with Bcl-2 3′UTR, “consistent reduction in reporter activity”.

For “miR-16: mature miR 16, SEQ ID NO. 5, 5′-UAGCAGCACGUAAAUAUUGGCG-3′; synthetic oligonucleotide (Ambion) in reporter assays (listed as RNA, chemistry not given here; listed as Homo sapiens)”, the Luciferase reporter activity result is recorded as “consistent reduction in reporter activity” in the data set on cyclin D1 3′UTR, “consistent reduction in reporter activity” in the data set with Wnt3a 3′UTR, “non-targeted region” with Pim-1 UTR and “consistent reduction in reporter activity” with Bcl-2 3′UTR.
